Measured values: the NIST ThermoML archive (doi:10.1016/j.jct.2007.04.005)

Experiment: xn = mol fraction of the nth substance listed
Conditions: 328.15 K, Liquid

CCCCCCCCC [nonane] + C1CCCCC1
mass density [kg/m3]
Conditions | x2 = 0 | x2 = 0.09303 | x2 = 0.2009 | x2 = 0.3051 | x2 = 0.417 | x2 = 0.512 | x2 = 0.5996 | x2 = 0.7052 | x2 = 0.7993 | x2 = 0.9039
18340 kPa | – | – | – | – | – | – | – | 737.9 | 744.5 | 753.1
20370 kPa | 708.4 | 711.2 | 715.1 | 719 | 723.6 | 728 | 733 | 739.5 | 746.2 | 754.8
22390 kPa | 710 | 712.8 | 716.7 | 720.6 | 725.2 | 729.6 | 734.7 | 741.2 | 747.9 | 756.5
24420 kPa | 711.5 | 714.4 | 718.2 | 722.2 | 726.8 | 731.2 | 736.3 | 742.8 | 749.5 | 758.1
26450 kPa | 713 | 715.9 | 719.8 | 723.7 | 728.3 | 732.7 | 737.9 | 744.4 | 751.1 | 759.8
28470 kPa | 714.5 | 717.4 | 721.3 | 725.2 | 729.8 | 734.2 | 739.4 | 746 | 752.6 | 761.4
29490 kPa | 715.2 | 718.1 | 722 | 725.9 | 730.6 | 735 | 740.2 | 746.7 | 753.4 | 762.1
30500 kPa | 716 | 718.8 | 722.8 | 726.7 | 731.3 | 735.7 | 740.9 | 747.5 | 754.2 | 762.9
32530 kPa | 717.4 | 720.3 | 724.2 | 728.1 | 732.8 | 737.2 | 742.4 | 748.9 | 755.7 | 764.4
34550 kPa | 718.8 | 721.7 | 725.6 | 729.6 | 734.2 | 738.7 | 743.9 | 750.5 | 757.1 | 765.9
36580 kPa | 720.2 | 723.1 | 727 | 730.9 | 735.7 | 740.1 | 745.3 | 751.9 | 758.6 | 767.4
38600 kPa | 721.6 | 724.4 | 728.4 | 732.3 | 737 | 741.5 | 746.7 | 753.3 | 760 | 768.9
39620 kPa | 722.2 | 725.1 | 729 | 733 | 737.7 | 742.1 | 747.4 | 754 | 760.7 | 769.6
